Measurements reported in patent US11000033B2, “Ketone or oxime compound, and herbicide” (NISSAN CHEMICAL CORPORATION, priority 2014, dated 2021).

What was measured:
Format in all cases: in vivo
[1] = system: Monochoria vaginalis; experiment: Test Example 2: herbicidal activity, application during weed generation in submerged conditions (symbol C); conditions: Table 23; application herbicide amount 320 g/ha; grade 0-5 by criteria of Test Example 1
Method in brief: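 Visual herbicidal ratings, taken three weeks after dosing, reflect post-emergence water-surface application to seedlings at one to two leaves. Conditions: co-sown weeds in alluvial soil flooded to 4 cm, greenhouse held at 25° C. to 30° C.; compound given as water-diluted emulsion at a fixed herbicide amount.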

[2] = system: Cyperus difformis; experiment: Test Example 3: herbicidal effect by foliage application, Wagner pot (symbol E); conditions: application herbicide amount 320 g/ha
Method in brief: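 Herbicidal activity was rated three weeks after a foliar spray of diluted emulsion concentrate, applied at a predetermined dose to plants grown for 14 days from seed in waterlogged alluvial soil within a 25–30 °C greenhouse.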

[3] = system: directly sowed rice plant; experiment: Test Example 3: effect on crop by foliage application, Wagner pot (symbol b); conditions: application herbicide amount 320 g/ha
Method in brief: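 Wagner pot (1/10000 are), alluvial soil, submerged 0.1–0.5 cm; sown E. crus-galli var. crus-galli, L. chinensis, C. difformis, rice; greenhouse 25–30 °C.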

[4] = system: Setaria viridis; experiment: Test Example 4: herbicidal effect by soil treatment (symbol G); conditions: for G: Setaria viridis, herbicidal effect grade: 320 g/ha; for G (Setaria viridis) herbicidal effect grade: application herbicide amount 320 g/ha
Method in brief: (§1)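 Seeds were sown in sterilized diluvial soil, covered with about 1.5 cm of soil, and the soil surface was sprayed with a water-diluted emulsion of the compound at a predetermined rate. Plants grew in a greenhouse at 25° C. to 30° C.; effects were scored visually 3 weeks after application.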

[5] = system: Apera spica-venti; experiment: Test Example 4: herbicidal effect by soil treatment (symbol L); conditions: for L: Apera spica-venti, herbicidal effect grade: 320 g/ha; for L (Apera spica-venti) herbicidal effect grade: application herbicide amount 320 g/ha
Method in brief: as §1

[6] = system: Abutilon theophrasti; experiment: Test Example 4: herbicidal effect by soil treatment (symbol M); conditions: for M: Abutilon theophrasti, herbicidal effect grade: 320 g/ha; for M (Abutilon theophrasti) herbicidal effect grade: application herbicide amount 320 g/ha
Method in brief: as §1

[7] = system: Amaranthus retroflexus; experiment: Test Example 4: herbicidal effect by soil treatment (symbol N); conditions: for N: Amaranthus retroflexus, herbicidal effect grade: 320 g/ha; for N (Amaranthus retroflexus) herbicidal effect grade: application herbicide amount 320 g/ha
Method in brief: as §1

[8] = system: Stellaria media; experiment: Test Example 4: herbicidal effect by soil treatment (symbol P); conditions: for P: Stellaria media, herbicidal effect grade: 320 g/ha; for P (Stellaria media) herbicidal effect grade: application herbicide amount 320 g/ha
Method in brief: as §1

[9] = system: rice; experiment: Test Example 4: effect on crop by soil treatment (symbol b); conditions: for b: directly sowed rice plant, effect grade on crop: 320 g/ha; for b (directly sowed rice plant) effect on crop grade: application herbicide amount 320 g/ha
Method in brief: (§2)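 Plants are raised in a greenhouse (25° C. to 30° C.) from spot-sown seed, which sits under about 1.5 cm of sterilized diluvial soil in a box shared with weed species.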

[10] = system: wheat; experiment: Test Example 4: effect on crop by soil treatment (symbol e); conditions: for e: wheat, effect grade on crop: 320 g/ha; for e (wheat) effect on crop grade: application herbicide amount 320 g/ha
Method in brief: as §2

[11] = system: Digitaria ciliaris; experiment: Test Example 5: herbicidal effect by foliage application, plastic box (symbol F); conditions: 320 g/ha, 3 weeks after application
Method in brief: (§3)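 Post-emergence spray; diluvial soil (sterilized), ~1.5 cm seed cover; greenhouse 25–30° C; 14-day-old plants; water-diluted emulsion at predetermined dose; visual score at 3 wk post-treatment.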

[12] = system: Avena fatua; experiment: Test Example 5: herbicidal effect by foliage application, plastic box (symbol I); conditions: 320 g/ha, 3 weeks after application
Method in brief: as §3

[13] = system: Alopecurus myosuroides; experiment: Test Example 5: herbicidal effect by foliage application, plastic box (symbol J); conditions: 320 g/ha, 3 weeks after application
Method in brief: as §3

[14] = system: soybean; experiment: Test Example 5: effect on crop by foliage application, plastic box (symbol d); conditions: 320 g/ha, 3 weeks after application
Method in brief: (§4)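 Soil: sterilized diluvial. Container: plastic box, 21 × 13 cm, 7 cm deep. Sowing: spot-like, ~1.5 cm cover. Growth: greenhouse, 25° C. to 30° C.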

[15] = system: wheat; experiment: Test Example 5: effect on crop by foliage application, plastic box (symbol e); conditions: 320 g/ha, 3 weeks after application
Method in brief: as §4

[16] = system: beet; experiment: Test Example 5: effect on crop by foliage application, plastic box (symbol f); conditions: 320 g/ha, 3 weeks after application
Method in brief: as §4

SMILES | Herbicidal effect grade, C: Monochoria vaginalis [1] | herbicidal effect on E, grade 0-5 [2] | effect on crop b (directly sowed rice plant), grade 0-5 [3] | G: Setaria viridis, herbicidal effect grade [4] | L: Apera spica-venti, herbicidal effect grade [5] | M: Abutilon theophrasti, herbicidal effect grade [6] | N: Amaranthus retroflexus, herbicidal effect grade [7] | G (Setaria viridis) herbicidal effect grade [4] | L (Apera spica-venti) herbicidal effect grade [5] | M (Abutilon theophrasti) herbicidal effect grade [6] | N (Amaranthus retroflexus) herbicidal effect grade [7] | P (Stellaria media) herbicidal effect grade [8] | b (directly sowed rice plant) effect on crop grade [9] | e (wheat) effect on crop grade [10] | F: Digitaria ciliaris, herbicidal effect grade [11] | I: Avena fatua, herbicidal effect grade [12] | J: Alopecurus myosuroides, herbicidal effect grade [13] | d: soybean, effect on crop grade [14] | e: wheat, effect on crop grade [15] | f: beet, effect on crop grade [16] | also measured
CON=C(C)CC1CC(OC(=O)COCc2ccccc2)=C(c2c(C)cc(C)cc2C)C1=O (centres unmarked) [1-094] | 4 (Herbicidal ratio of 70% or higher and lower than 90%) | 4 (Herbicidal ratio of 70% or higher and lower than 90%) | 5 (Herbicidal ratio of 90% or more (almost completely withered)) | 5 (Herbicidal ratio of 90% or more (almost completely withered)) | 5 (Herbicidal ratio of 90% or more (almost completely withered)) | 2 (Herbicidal ratio of 20% or higher and lower than 40%) | 4 (Herbicidal ratio of 70% or higher and lower than 90%) | – | – | – | – | – | – | – | – | – | – | – | – | – | P: Stellaria media, herbicidal effect grade [8]: 0 (Herbicidal ratio of 5% or lower (almost no effect)); b: directly sowed rice plant, effect grade on crop [9]: 5 (Herbicidal ratio of 90% or more (almost completely withered)); e: wheat, effect grade on crop [10]: 3 (Herbicidal ratio of 40% or higher and lower than 70%); F: Digitaria ciliaris, herbicidal effect (criteria 0-5) [11]: 5 (Herbicidal ratio of 90% or more (almost completely withered)); I: Avena fatua, herbicidal effect (criteria 0-5) [12]: 5 (Herbicidal ratio of 90% or more (almost completely withered)); J: Alopecurus myosuroides, herbicidal effect (criteria 0-5) [13]: 5 (Herbicidal ratio of 90% or more (almost completely withered)); d: soybean, effect on crop (criteria 0-5) [14]: 2 (Herbicidal ratio of 20% or higher and lower than 40%); e: wheat, effect on crop (criteria 0-5) [15]: 5 (Herbicidal ratio of 90% or more (almost completely withered)); f: beet, effect on crop (criteria 0-5) [16]: 0 (Herbicidal ratio of 5% or lower (almost no effect))
CON=C(CC1CC(O)=C(c2c(C)cc(C)cc2C)C1=O)c1ccccc1 (centres unmarked) [1-047] | 0 (Herbicidal ratio of 5% or lower (almost no effect)) | 0 (Herbicidal ratio of 5% or lower (almost no effect)) | 2 (Herbicidal ratio of 20% or higher and lower than 40%) | – | – | – | – | 0 (Herbicidal ratio of 5% or lower (almost no effect)) | 0 (Herbicidal ratio of 5% or lower (almost no effect)) | 0 (Herbicidal ratio of 5% or lower (almost no effect)) | 0 (Herbicidal ratio of 5% or lower (almost no effect)) | 0 (Herbicidal ratio of 5% or lower (almost no effect)) | 4 (Herbicidal ratio of 70% or higher and lower than 90%) | 0 (Herbicidal ratio of 5% or lower (almost no effect)) | 1 (Herbicidal ratio of 5% or higher and lower than 20%) | 0 (Herbicidal ratio of 5% or lower (almost no effect)) | 3 (Herbicidal ratio of 40% or higher and lower than 70%) | 0 (Herbicidal ratio of 5% or lower (almost no effect)) | 0 (Herbicidal ratio of 5% or lower (almost no effect)) | 0 (Herbicidal ratio of 5% or lower (almost no effect)) | –
CON=C(C)CC1CC(OC(=O)C=Cc2ccco2)=C(c2c(C)cc(C)cc2C)C1=O (centres unmarked) [1-091] | 0 (Herbicidal ratio of 5% or lower (almost no effect)) | 5 (Herbicidal ratio of 90% or more (almost completely withered)) | 5 (Herbicidal ratio of 90% or more (almost completely withered)) | 5 (Herbicidal ratio of 90% or more (almost completely withered)) | 5 (Herbicidal ratio of 90% or more (almost completely withered)) | 1 (Herbicidal ratio of 5% or higher and lower than 20%) | 0 (Herbicidal ratio of 5% or lower (almost no effect)) | – | – | – | – | – | – | – | – | – | – | – | – | – | P: Stellaria media, herbicidal effect grade [8]: 0 (Herbicidal ratio of 5% or lower (almost no effect)); b: directly sowed rice plant, effect grade on crop [9]: 5 (Herbicidal ratio of 90% or more (almost completely withered)); e: wheat, effect grade on crop [10]: 4 (Herbicidal ratio of 70% or higher and lower than 90%); F: Digitaria ciliaris, herbicidal effect (criteria 0-5) [11]: 5 (Herbicidal ratio of 90% or more (almost completely withered)); I: Avena fatua, herbicidal effect (criteria 0-5) [12]: 5 (Herbicidal ratio of 90% or more (almost completely withered)); J: Alopecurus myosuroides, herbicidal effect (criteria 0-5) [13]: 5 (Herbicidal ratio of 90% or more (almost completely withered)); d: soybean, effect on crop (criteria 0-5) [14]: 1 (Herbicidal ratio of 5% or higher and lower than 20%); e: wheat, effect on crop (criteria 0-5) [15]: 5 (Herbicidal ratio of 90% or more (almost completely withered)); f: beet, effect on crop (criteria 0-5) [16]: 0 (Herbicidal ratio of 5% or lower (almost no effect))
CON=C(CC1CC1)CC1CC(O)=C(c2c(C)cc(C)cc2C)C1=O (centres unmarked) [1-070] | 0 (Herbicidal ratio of 5% or lower (almost no effect)) | 4 (Herbicidal ratio of 70% or higher and lower than 90%) | 5 (Herbicidal ratio of 90% or more (almost completely withered)) | – | – | – | – | 4 (Herbicidal ratio of 70% or higher and lower than 90%) | 5 (Herbicidal ratio of 90% or more (almost completely withered)) | 0 (Herbicidal ratio of 5% or lower (almost no effect)) | 0 (Herbicidal ratio of 5% or lower (almost no effect)) | 0 (Herbicidal ratio of 5% or lower (almost no effect)) | 5 (Herbicidal ratio of 90% or more (almost completely withered)) | 0 (Herbicidal ratio of 5% or lower (almost no effect)) | 1 (Herbicidal ratio of 5% or higher and lower than 20%) | 5 (Herbicidal ratio of 90% or more (almost completely withered)) | 5 (Herbicidal ratio of 90% or more (almost completely withered)) | 0 (Herbicidal ratio of 5% or lower (almost no effect)) | 0 (Herbicidal ratio of 5% or lower (almost no effect)) | 0 (Herbicidal ratio of 5% or lower (almost no effect)) | –
CCC(C)C(CC1CC(O)=C(c2c(C)cc(C)cc2C)C1=O)=NOC (centres unmarked) [1-066] | 0 (Herbicidal ratio of 5% or lower (almost no effect)) | 5 (Herbicidal ratio of 90% or more (almost completely withered)) | 5 (Herbicidal ratio of 90% or more (almost completely withered)) | – | – | – | – | 4 (Herbicidal ratio of 70% or higher and lower than 90%) | 5 (Herbicidal ratio of 90% or more (almost completely withered)) | 0 (Herbicidal ratio of 5% or lower (almost no effect)) | 0 (Herbicidal ratio of 5% or lower (almost no effect)) | 0 (Herbicidal ratio of 5% or lower (almost no effect)) | 5 (Herbicidal ratio of 90% or more (almost completely withered)) | 0 (Herbicidal ratio of 5% or lower (almost no effect)) | 4 (Herbicidal ratio of 70% or higher and lower than 90%) | 4 (Herbicidal ratio of 70% or higher and lower than 90%) | 5 (Herbicidal ratio of 90% or more (almost completely withered)) | 0 (Herbicidal ratio of 5% or lower (almost no effect)) | 0 (Herbicidal ratio of 5% or lower (almost no effect)) | 0 (Herbicidal ratio of 5% or lower (almost no effect)) | –
